Assay [1] concerns the target T1, Type II 5α-Reductase from Human Prostate (Homo sapiens, UniProt P31213).
T1 construct: The same procedure as above was used for preparations using tissue from prostate surgery; from tissue; host or cells: human prostate tissue from surgery, homogenate, 100,000×g pellet
T1 sequence (P31213 1-254): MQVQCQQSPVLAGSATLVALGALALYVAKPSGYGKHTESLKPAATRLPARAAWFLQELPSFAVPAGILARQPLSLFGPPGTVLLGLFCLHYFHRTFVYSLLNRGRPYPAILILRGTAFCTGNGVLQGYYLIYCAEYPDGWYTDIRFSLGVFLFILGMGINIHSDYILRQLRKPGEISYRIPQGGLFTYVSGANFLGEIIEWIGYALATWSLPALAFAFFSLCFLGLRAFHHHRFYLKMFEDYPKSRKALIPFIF
In words: Human Type II 5α-reductase assay (conversion of [3H]-testosterone to 5α-reduced metabolites). It is filed as biochemical.

Assay [2] concerns the target T2, Type I 5α-Reductase from Human Scalp (Homo sapiens, UniProt P18405).
T2 construct: Scalp punch biopsies from graft recipient sites were obtained from human hair transplant procedures; from tissue; host or cells: human scalp punch biopsies (hair transplant graft recipient sites), homogenate, 100,000×g pellet
T2 sequence (P18405 1-259): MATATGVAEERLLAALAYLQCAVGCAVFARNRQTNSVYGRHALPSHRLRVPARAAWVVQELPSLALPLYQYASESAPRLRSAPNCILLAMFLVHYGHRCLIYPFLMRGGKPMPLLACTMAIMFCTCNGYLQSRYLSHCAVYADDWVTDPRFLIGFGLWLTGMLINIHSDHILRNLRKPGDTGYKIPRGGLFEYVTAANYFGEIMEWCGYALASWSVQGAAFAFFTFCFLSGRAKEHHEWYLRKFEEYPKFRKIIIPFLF
In words: Human Type I 5α-reductase assay (conversion of [3H]-testosterone to 5α-reduced metabolites). Type of assay: biochemical.

The mark [3] stands for this setting: pH 5.5, 0.3 μM, sodium acetate pH 5.5, 25°, 30 min, compared to control reaction mixtures, read-out: percent inhibition of Type II AR.
Setting [4] is: pH 7.5, 0.3 μM, 50 nM [3H]-testosterone, pH 7.5, 25°, 180 min, compared to control reaction mixtures, read-out: percent inhibition of Type I AR.

Structures are written as SMILES. Where two headings read alike, the source gives them in different places.

`CN1C(=O)CC[C@]2(C)c3ccc(Sc4nccc5ccccc45)cc3CC[C@@H]12` [Example 113, (4aR)-(10bR)-4,10b-dimethyl-8-(1-isoquinolinylthio)-1,2,3,4,4a,5,6,10b-octahydrobenzo[f]quinolin-3-one]: the inhibition at 0.3 µM in assay [1] (setting [3]) was determined as 51%; in assay [2] (setting [4]), 70%.
As to `CN1C(=O)CC[C@]2(C)c3ccc(Sc4cncc5ccccc45)cc3CC[C@@H]12` [Example 114, (4aR)-(10bR)-4,10b-dimethyl-8-(4-isoquinolinylthio)-1,2,3,4,4a,5,6,10b-octahydrobenzo[f]quinolin-3-one], the inhibition at 0.3 µM was found to be 47% in assay [1] (setting [3]) and 55% in assay [2] (setting [4]).
Consider `CN1C(=O)CC[C@]2(C)c3ccc(Sc4ccncc4)cc3CC[C@@H]12` [Example 115, (+)-(4aR)-(10bR)-4,10b-dimethyl-8-(4-pyridinylthio)-1,2,3,4,4a,5,6,10b-octahydrobenzo[f]quinolin-3-one], for which the inhibition at 0.3 µM in assay [1] (setting [3]) is 20%; in assay [2] (setting [4]) it was 31%.
`CN1C(=O)C=C[C@]2(C)c3ccc(-c4cccc5ccccc45)cc3CC[C@@H]12` [Example 117, (+)-(4aR)-(10bR)-4-methyl-8-(1-naphthyl)-10b-methyl-3,4,4a,5,6,10b-hexahydrobenzo[f]quinolin-3-one]: the inhibition at 0.3 µM in assay [1] (setting [3]) was determined as 49%; in assay [2] (setting [4]), 46%.
On to `CN1C(=O)C=C[C@]2(C)c3ccc(-c4cccc([N+](=O)[O-])c4)cc3CC[C@@H]12` [Example 118, (+)-(4aR)-(10bR)-4-methyl-8-(3-nitrophenyl)-10b-methyl-3,4,4a,5,6,10b-hexahydrobenzo[f]quinolin-3-one], for which the inhibition at 0.3 µM was determined as 43% in assay [1] (setting [3]) and 25% in assay [2] (setting [4]).
Consider `CSc1ccc(-c2ccc3c(c2)CC[C@H]2N(C)C(=O)CC[C@]32C)cc1` [Example 120, (+)-(4aR)-(10bR)-4-methyl-8-(4-methylthiophenyl)-10b-methyl-1,2,3,4,4a,5,6,10b-octahydrobenzo[f]quinolin-3-one], for which the figures for the inhibition at 0.3 µM in assay [1] (setting [3]) and in assay [2] (setting [4]) were 37% and 93%, respectively.
Regarding `CNS(=O)(=O)c1ccc(-c2ccc3c(c2)CC[C@H]2N(C)C(=O)CC[C@]32C)cc1` [Example 123], the inhibition at 0.3 µM in assay [1] (setting [3]) is 27%; in assay [2] (setting [4]), 10%.
Take `CN1C(=O)CC[C@]2(C)c3ccc(-c4ccccc4[N+](=O)[O-])cc3CC[C@@H]12` [Example 124, (+)-(4aR)-(10bR)-4-methyl-8-(2-nitrophenyl)-10b-methyl-1,2,3,4,4a,5,6,10b-octahydrobenzo[f]quinolin-3-one]: the inhibition at 0.3 µM in assay [1] (setting [3]) worked out at 32%; in assay [2] (setting [4]), 23%.
On to `CN1C(=O)CC[C@]2(C)c3ccc(-c4ccccc4C#N)cc3CC[C@@H]12` [Example 125, (+)-(4aR)-(10bR)-4-methyl-8-(2-cyanophenyl)-10b-methyl-1,2,3,4,4a,5,6,10b-octahydrobenzo[f]quinolin-3-one], for which the inhibition at 0.3 µM is 36% in assay [1] (setting [3]) and 64% in assay [2] (setting [4]).
`CN1C(=O)CC[C@]2(C)c3ccc(-c4ccc(COc5ccccc5)s4)cc3CC[C@@H]12` [Example 126, (+)-(4aR)-(10bR)-4-methyl-8-(2-[5-(phenoxymethyl)thienyl])-10b-methyl-1,2,3,4,4a,5,6,10b-octahydrobenzo[f]quinolin-3-one]: the inhibition at 0.3 µM in assay [1] (setting [3]) was 43%; in assay [2] (setting [4]) it was 85%.
As for `CN1C(=O)CC[C@]2(C)c3ccc(-c4cc(F)c(F)cc4F)cc3CC[C@@H]12` [Example 128, (+)-(4aR)-(10bR)-4-methyl-8-(2,4,5-trifluorophenyl)-10b-methyl-1,2,3,4,4a,5,6,10b-octahydrobenzo[f]quinolin-3-one], the inhibition at 0.3 µM in assay [1] (setting [3]) came out at 40%; in assay [2] (setting [4]), 82%.
The corresponding values for `CN1C(=O)CC[C@]2(C)c3ccc(-c4ccc(COc5ccc(F)cc5)s4)cc3CC[C@@H]12` [Example 129, (+)-(4aR)-(10bR)-4-methyl-8-(2-[5-(4-fluorophenoxy-methyl)thienyl])-10b-methyl-1,2,3,4,4a,5,6,10b-octahydrobenzo[f]-quinolin-3-one] are 36% and 91%.
As for `CN1C(=O)CC[C@]2(C)c3ccc(-c4cc(F)cc(F)c4F)cc3CC[C@@H]12` [Example 130, (+)-(4aR)-(10bR)-4-methyl-8-(2,3,5-trifluorophenyl)-10b-methyl-1,2,3,4,4a,5,6,10b-octahydrobenzo[f]quinolin-3-one], the inhibition at 0.3 µM in assay [1] (setting [3]) was found to be 29%; in assay [2] (setting [4]), 83%.
Regarding `CN1C(=O)CC[C@]2(C)c3ccc(-c4ccc5c(c4)Cc4ccccc4-5)cc3CC[C@@H]12` [Example 131, (+)-(4aR)-(10bR)-4-methyl-8-(2-fluorenyl)-10b-methyl-1,2,3,4,4a,5,6,10b-octahydrobenzo[f]quinolin-3-one], the inhibition at 0.3 µM in assay [1] (setting [3]) was 44%; in assay [2] (setting [4]), 57%.
For `CN1C(=O)CC[C@]2(C)c3ccc(-c4cc(Cl)sc4Cl)cc3CC[C@@H]12` [Example 132, (+)-(4aR)-(10bR)-4-methyl-8-(3-[2,5-dichlororo]thienyl)-10b-methyl-1,2,3,4,4a,5,6,10b-octahydrobenzo[f]quinolin-3-one], the inhibition at 0.3 µM was found to be 24% in assay [1] (setting [3]) and 87% in assay [2] (setting [4]).
For the molecule `CN1C(=O)CC[C@]2(C)c3ccc(-c4ccc([N+](=O)[O-])cc4C(F)(F)F)cc3CC[C@@H]12` [Example 133, (+)-(4aR)-(10bR)-4-methyl-8-(4-nitro-2-trifluoromethylphenyl)-10b-methyl-1,2,3,4,4a,5,6,10b-octahydrobenzo[f]-quinolin-3-one], the inhibition at 0.3 µM in assay [1] (pH 5.5, read-out: percent inhibition of Type II AR) was found to be 34%; in assay [2] (pH 7.5, read-out: percent inhibition of Type I AR), 77%.
Consider `CN1C(=O)CC[C@]2(C)c3ccc(-c4ccc(C(F)(F)F)cc4[N+](=O)[O-])cc3CC[C@@H]12` [Example 134, (+)-(4aR)-(10bR)-4-methyl-8-(2-nitro-4-trifluoromethylphenyl)-10b-methyl-1,2,3,4,4a,5,6,10b-octahydrobenzo[f]-quinolin-3-one], for which the values for the inhibition at 0.3 µM in assay [1] (setting [3]) and in assay [2] (setting [4]) were 46% and 97%, respectively.
Consider `CN1C(=O)CC[C@]2(C)c3ccc(-c4c(F)c(F)c(Cl)c(F)c4F)cc3CC[C@@H]12` [Example 135, (+)-(4aR)-(10bR)-4-methyl-8-(4-chloro-2,3,5,6-tetrafluorophenyl)-10b-methyl-1,2,3,4,4a,5,6,10b-octahydrobenzo[f]-quinolin-3-one], for which the inhibition at 0.3 µM in assay [1] (setting [3]) turned out to be 31%; in assay [2] (setting [4]), 92%.
`CN1C(=O)CC[C@]2(C)c3ccc(SCc4ccccc4)cc3CC[C@@H]12` [Example 136, (4aR)-(10bR)-8-benzylthio-4,10b-dimethyl-1,2,3,4,4a,5,6, 10b-octahydrobenzo[f]quinolin-3-one]: the inhibition at 0.3 µM turned out to be 32% in assay [1] (setting [3]) and 100% in assay [2] (setting [4]).
Turning to `CN1C(=O)CC[C@]2(C)c3ccc(CSc4ccccc4)cc3CC[C@@H]12` [Example 137, (4aR)-(10bR)-8-phenylthiomethyl-4,10b-dimethyl-1,2,3,4,4a,5,6,10b-octahydrobenzo[f]quinolin-3-one], the results for the inhibition at 0.3 µM in assay [1] (setting [3]) and in assay [2] (setting [4]) were 37% and 90%, respectively.
Regarding `CN1C(=O)CC[C@]2(C)c3ccc(CSc4nc5ccccc5s4)cc3CC[C@@H]12` [Example 138, (4aR)-(10bR)-8-(2-benzothiazole)thiomethyl-4,10b-dimethyl-1,2,3,4,4a,5,6,10b-octahydrobenzo[f]quinolin-3-one], the inhibition at 0.3 µM in assay [1] (setting [3]) is 26%; in assay [2] (setting [4]), 88%.
Take `CN1C(=O)CC[C@]2(C)c3ccc(C(c4ccccc4)c4ccccc4)cc3CC[C@@H]12` [Example 139, (4aR)-(10bR)-8-diphenylmethyl-4,10b-dimethyl-1,2,3,4,-4a,5,6,10b-octahydrobenzo[f]quinolin-3-one]: the inhibition at 0.3 µM in assay [1] (setting [3]) turned out to be 59%; in assay [2] (setting [4]) it was 30%.
As to `CN1C(=O)CC[C@]2(C)c3ccc(C(=O)Nc4ccccc4)cc3CC[C@@H]12` [Example 143, (+)-(4aR)-(10bR)-4-methyl-8-(phenylcarboxamido)-10b-methyl-1,2,3,4,4a,5,6,10b-octahydrobenzo[f]quinolin-3-one], the figures for the inhibition at 0.3 µM in assay [1] (setting [3]) and in assay [2] (setting [4]) were 18% and 63%, respectively.
In the case of `CN1C(=O)CC[C@]2(C)c3ccc(C(=O)OCc4ccccc4)cc3CC[C@@H]12` [Example 144, (+)-(4aR)-(10bR)-4-methyl-8-benzyloxycarbonyl-10b-methyl-1,2,3,4,4a,5,6,10b-octahydrobenzo[f]quinolin-3-one], the values for the inhibition at 0.3 µM in assay [1] (setting [3]) and in assay [2] (setting [4]) were 40% and 90%, respectively.
Take `CN1C(=O)CC[C@]2(C)c3ccc(C(=O)Oc4ccccc4)cc3CC[C@@H]12` [Example 145, (+)-(4aR)-(10bR)-4-methyl-8-phenoxycarbonyl-10b-methyl-1 2,3,4,4a,5,6,10b-octahydrobenzo[f]quinolin-3-one]: the inhibition at 0.3 µM turned out to be 41% in assay [1] (setting [3]) and 85% in assay [2] (setting [4]).

By inhibition is commonly meant the relative decrease from the control value, in per cent.

For the origin of these results see patent publication US5622962A, “5α-reductase inhibitors” (priority 1995, dated 1997).
